Four compounds from article PMC7435657, “[^99mTc]Tc-DB1 Mimics with Different-Length PEG Spacers: Preclinical Comparison in GRPR-Positive Models” (Molecules, 2020) can be followed below.

The target of one test is human GRPR (Homo sapiens, UniProt P30550). The test can be described thus: biochemical. As for the experimental part: Competition binding assays for DB7, DB13 and DB14 were performed in PC-3 cell membranes.
Competition binding experiments of DB7, […] against [^125 I][I-Tyr^4]BBN were conducted in PC-3 cell membranes. Increasing concentrations of tested peptide (10^−13–10^−5 M) were mixed with the radioligand (40,000 cpm per assay tube, at a 50 pM concentration) and the membrane homogenate in a total volume of 300 μL binding buffer (pH 7.4, 50 mM HEPES, 1% BSA, 5.5 mM MgCl2, 35 μM bacitracin). Triplicates of each concentration point were incubated for 60 min at 22 °C in an Incubator-Orbital Shaker unit (MPM Instr. SrI, Bernareggio, MI, Italy). The incubation was interrupted by adding ice-cold washing buffer (10 mM HEPES pH 7.4, 150 mM NaCl), followed by rapid filtration over glass fiber filters (Whatman GF/B, presoaked in binding buffer) on a Brandel Cell Harvester (Adi Hassel Ingenieur Büro, Munich, Germany). Filters were washed with cold washing buffer and were counted for their radioactivity content in an automated well-type gamma counter [NaI(Tl) 3″ crystal, Canberra Packard Cobra Quantum series instrument]. The 50% inhibitory concentration (IC50) values were calculated by nonlinear regression according to a one-site model applying the PRISM 6 program (Graph Pad Software, San Diego, CA, USA) and are expressed as mean ± SD of three experiments performed in triplicate.

The next test relates to PC-3 cells. The test can be described thus: Radiotracer uptake (internalized + membrane bound) in PC-3 cells. Format: cell-based, human. Conditions: 1 h incubation at 37 °C, % of total added radioactivity, mean ± SD of 3 experiments. As for the experimental part:
The uptake of [^99mTc]Tc-DB7, [^99mTc]Tc-DB13, and [^99mTc]Tc-DB14 in PC-3 cells is compared in Figure 3. In all cases, the bulk of radioactivity was found on the membrane of PC-3 cells with only a small portion detected within the cells, consistent with a noninternalizing radioantagonist profile.
Figure 3 Specific uptake of [^99mTc]Tc-DB7 (pink bars), [^99mTc]Tc-DB13 (violet bars) and [^99mTc]Tc-DB14 (gray bars) in PC-3 cells after 1 h incubation at 37 °C (checkered bars: internalized, solid bars: membrane bound fractions); results represent the mean ± SD of 3 experiments performed in triplicate.
For internalization assays with [^99mTc]Tc-DB7, [^99mTc]Tc-DB13, and [^99mTc]Tc-DB14, PC-3 cells were seeded in six well plates (≈1 × 10^6 cells per well) 24 h before the experiment. […] Nonspecific internalization was determined by a parallel triplicate series containing 1 μM [Tyr^4]BBN. […] Sample radioactivity was measured on the gamma counter and the percentage, of specific internalized and membrane-bound fractions were calculated with Microsoft Excel (after subtracting nonspecific from overall internalized and membrane-bound counts). Results represent specific internalized ± SD of total added radioactivity per well from three experiments performed in triplicate.

human GRPR, sequence (P30550 whole entry): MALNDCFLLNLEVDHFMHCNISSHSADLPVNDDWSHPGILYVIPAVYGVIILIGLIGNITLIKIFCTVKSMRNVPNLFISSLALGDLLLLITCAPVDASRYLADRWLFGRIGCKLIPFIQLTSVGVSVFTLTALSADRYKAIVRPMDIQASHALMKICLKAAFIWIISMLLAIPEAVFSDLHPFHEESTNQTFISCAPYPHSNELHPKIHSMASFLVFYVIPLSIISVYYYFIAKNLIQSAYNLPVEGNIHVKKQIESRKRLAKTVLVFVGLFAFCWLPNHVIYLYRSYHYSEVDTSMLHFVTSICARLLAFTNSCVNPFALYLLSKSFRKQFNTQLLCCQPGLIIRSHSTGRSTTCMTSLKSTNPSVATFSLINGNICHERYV

`CCNC(=O)[C@H](CC(C)C)NC(=O)[C@H](Cc1c[nH]cn1)NC(=O)CNC(=O)[C@@H](NC(=O)[C@H](C)NC(=O)[C@H](Cc1c[nH]c2ccccc12)NC(=O)[C@H](CCC(N)=O)NC(=O)[C@@H](Cc1ccccc1)NC(=O)COCCOCCNC(=O)C(CNCCN)CNCCN)C(C)C` [DB7, [N4-PEGx-DPhe^6,Leu-NHEt^13]BBN(6-13)] had an IC50 against human GRPR of 0.93 ± 0.01 nM.

At human GRPR, `CCNC(=O)[C@H](CC(C)C)NC(=O)[C@H](Cc1c[nH]cn1)NC(=O)CNC(=O)[C@@H](NC(=O)[C@H](C)NC(=O)[C@H](Cc1c[nH]c2ccccc12)NC(=O)[C@H](CCC(N)=O)NC(=O)[C@@H](Cc1ccccc1)NC(=O)CCOCCOCCOCCNC(=O)C(CNCCN)CNCCN)C(C)C` [DB13, [N4-PEGx-DPhe^6,Leu-NHEt^13]BBN(6-13)] gave a half-maximal inhibitory concentration (IC50) of 1.03 ± 0.01 nM.

As to `CCNC(=O)[C@H](CC(C)C)NC(=O)[C@H](Cc1c[nH]cn1)NC(=O)CNC(=O)[C@@H](NC(=O)[C@H](C)NC(=O)[C@H](Cc1c[nH]c2ccccc12)NC(=O)[C@H](CCC(N)=O)NC(=O)[C@@H](Cc1ccccc1)NC(=O)CCOCCOCCOCCOCCNC(=O)C(CNCCN)CNCCN)C(C)C` [DB14, [N4-PEGx-DPhe^6,Leu-NHEt^13]BBN(6-13)], on human GRPR, the IC50 turned out to be 1.18 ± 0.09 nM.

As for “[^99mTc]Tc-[N4-PEGx-DPhe^6,Leu-NHEt^13]BBN(6-13) [[^99mTc]Tc-DB7]”, the Specific cell uptake in the test on PC-3 cells is on record as 2.6 ± 0.5%.

Broadly, the IC50 is the concentration that inhibits the measured activity by half. High values mean weaker potency, low ones greater potency.
